Test results: patent US10875851B2, “Factor XIIa inhibitors” (Merck Sharp & Dohme Corp., priority 2016, dated 2020)

molecular target: human Factor XIIa (Homo sapiens (Human), UniProt P00748); test: Factor XIIa Assay; assay type: biochemical; conditions: purified human Factor XIIa 500 pM; substrate n-Acetyl-Lys-Pro-Arg-AFC 100 μM; pH 7.4; read-out: FXIIa IC50
Description: The effectiveness of a compound of the present invention as an inhibitor of Coagulation Factor XIIa can be determined using a relevant purified serine protease, and an appropriate synthetic substrate. The rate of hydrolysis of the chromogenic or fluorogenic substrate by the relevant serine protease was measured both in the absence and presence of compounds of the present invention. Assays were conducted at room temperature or at 37° C. […] A decrease in the rate of fluorescence change in the presence of inhibitor is indicative of enzyme inhibition. Such methods are known to one skilled in the art.
Factor XIIa activity determinations were made in 50 mM HEPES buffer containing 150 mM NaCl, 5 mM CaCl2, and 0.1% PEG 8000 (polyethylene glycol; JT Baker or Fisher Scientific) at pH 7.4. Determinations were made using purified human Factor XIIa at a final concentration of 500 pM (Sekisui Diagnostics) and the synthetic substrate, n-Acetyl-Lys-Pro-Arg-AFC, TFA salt (Sigma #C6608) at a concentration of 100 μM.
Times required to achieve equilibration between enzyme and inhibitor were determined in control experiments. Initial velocities of product formation in the absence (Vo) or presence of inhibitor (Vi) were measured. IC50 was determined as the concentration of I yielding Vi=Vo/2.

Chain of human Factor XIIa (P00748 373-615): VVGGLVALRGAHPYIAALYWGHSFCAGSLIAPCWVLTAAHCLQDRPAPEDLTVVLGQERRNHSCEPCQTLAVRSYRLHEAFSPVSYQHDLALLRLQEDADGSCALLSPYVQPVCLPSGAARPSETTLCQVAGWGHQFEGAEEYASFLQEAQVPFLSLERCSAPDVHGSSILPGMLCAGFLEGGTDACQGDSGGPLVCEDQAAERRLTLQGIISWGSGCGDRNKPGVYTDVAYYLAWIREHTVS

IC50	Compound
54.8 nM	CC1(C)N=C(N2CCN(C(=O)[C@H](N)CCCCN3CCCCC3)[C@H](C(=O)NCc3cc(Cl)ccc3-n3cnnn3)C2)OC1c1ccccc1 (stereo partly drawn) [Example 157, (2S)-N-[5-chloro-2-(1H-tetrazol-1-yl)benzyl]-4-(4,4-dimethyl-5-phenyl-4,5-dihydro-1,3-oxazol-2-yl)-1-(6-piperidin-1-yl-D-norleucyl)piperazine-2-carboxamide]
21.1 nM	CS(=O)(=O)NCCCC[C@@H](NC1CCCCC1)C(=O)N1CCN(C2=NCC3(CCCCC3)O2)C[C@H]1C(=O)NCc1cccs1 [Example 126, (2S)-1-[N^2-cyclohexyl-N^6-(methylsulfonyl)-D-lysyl]-4-(1-oxa-3-azaspiro[4.5]dec-2-en-2-yl)-N-(thiophen-2-ylmethyl)piperazine-2-carboxamide]
29.7 nM	CN(C)CCCC[C@@H](NC1CCCCC1)C(=O)N1CCN(C2=NC(C)(C)CO2)C[C@H]1C(=O)NCc1cccs1 [Example 144, (2S)-1-(N^2-cyclohexyl-N^6,N^6-dimethyl-D-lysyl)-4-(4,4-dimethyl-4,5-dihydro-1,3-oxazol-2-yl)-N-(thiophen-2-ylmethyl)piperazine-2-carboxamide]
3.9 nM	CC(C)N[C@H](CCCCN1CCCCC1)C(=O)N1CCN(C2=N[C@@H](C)[C@H](c3ccccc3)O2)C[C@H]1C(=O)NCc1cc2cnccc2s1 [Example 173, (2S)-1-[N-(1-methylethyl)-6-piperidin-1-yl-D-norleucyl]-4-[(4S,5S)-4-methyl-5-phenyl-4,5-dihydro-1,3-oxazol-2-yl]-N-(thieno[3,2-c]pyridin-2-ylmethyl)piperazine-2-carboxamide]
1.8 nM	C[C@@H]1N=C(N2CCN(C(=O)[C@@H](CCCCN(C)C)N(C)C3CCC4(CC3)CCN(Cc3ccccc3)C4)[C@H](C(=O)NCc3cccs3)C2)O[C@H]1c1ccccc1 (stereo partly drawn) [Example 131, (2S)-1-[N^2-(2-benzyl-2-azaspiro[4.5]dec-8-yl)-N^2,N^6,N^6-trimethyl-D-lysl]-4-[(4S,5S)-4-methyl-5-phenyl-4,5-dihydro-1,3-oxazol-2-yl]-N-(thiophen-2-ylmethyl)piperazine-2-carboxamide]
34.2 nM	C[C@@H]1N=C(N2CCN(C(=O)[C@@H](CC3CCN(C4CCC(C(N)=O)CC4)CC3)NC3CCC(C(N)=O)CC3)[C@H](C(=O)NCc3cccs3)C2)O[C@H]1c1ccccc1 (stereo partly drawn) [Example 182, (2S)-1-{N-(4-carbamoylcyclohexyl)-3-[1-(4-carbamoylcyclohexyl)piperidin-4-yl]-D-alanyl}-4-[(4S,5S)-4-methyl-5-phenyl-4,5-dihydro-1,3-oxazol-2-yl]-N-(thiophen-2-ylmethyl)piperazine-2-carboxamide]
48.5 nM	CN(C)CCCC[C@H](C(=O)N1CCN(C2=NC(C)(C)C(c3ccccc3)O2)C[C@H]1C(=O)NCc1cc(CN)cs1)N(C)C (stereo partly drawn) [Example 150, (2S)-N-{[4-(aminomethyl)thiophen-2-yl]methyl}-4-(4,4-dimethyl-5-phenyl-4,5-dihydro-1,3-oxazol-2-yl)-1-(N^2,N^2,N^6,N^6-tetramethyl-D-lysyl)piperazine-2-carboxamide]
2.4 nM	C[C@@H]1N=C(N2CCN(C(=O)[C@@H](CC3CCN(C4CCCCC4)CC3)NC3CCCCC3)[C@H](C(=O)NCc3cccs3)C2)O[C@H]1c1ccccc1 [Example 183, (2S)-[N-cyclohexyl-3-(1-cyclohexylpiperidin-4-yl)-D-alanyl]-4-[(4S,5S)-4-methyl-5-phenyl-4,5-dihydro-1,3-oxazol-2-yl]-N-(thiophen-2-ylmethyl)piperazine-2-carboxamide]
53.6 nM	CN(C)CCCC[C@H](C(=O)N1CCN(C2=NC(C)(C)C(c3ccccc3)O2)C[C@H]1C(=O)NCc1ccc(C(N)=O)cc1)N(C)C (stereo partly drawn) [Example 155, (2S)-N-(4-carbamoylbenzyl)-4-(4,4-dimethyl-5-phenyl-4,5-dihydro-1,3-oxazol-2-yl)-1-(N^2,N^2,N^6,N^6-tetramethyl-D-lysyl)piperazine-2-carboxamide]
15 nM	C[C@@H]1N=C(N2CCN(C(=O)[C@H](N)CCCCN3CCCCC3)[C@H](C(=O)NCc3cc4cnccc4s3)C2)O[C@H]1c1ccccc1 [Example 163, (2S)-4-[(4S,5S)-4-methyl-5-phenyl-4,5-dihydro-1,3-oxazol-2-yl]-1-(6-piperidin-1-yl-D-norleucyl)-N-(thieno[3,2-c]pyridin-2-ylmethyl)piperazine-2-carboxamide]

Continued, compound first:

Compound	IC50
Cc1ccc(OC(=O)N2CCN(C(=O)[C@@H](CCCCNC(C)C)NC(C)C)[C@H](C(=O)NCc3cccs3)C2)c(Cl)c1C [Example 103, 2-chloro-3,4-dimethylphenyl (3S)-4-[N^2,N^6-bis(1-methylethyl)-D-lysyl]-3-[(thiophen-2-ylmethyl)carbamoyl]piperazine-1-carboxylate]	1.4 nM
O=C(NCc1cccs1)[C@@H]1CN(C(=O)Oc2cccc3c2CCNC3)CCN1C(=O)[C@@H](CC1CCCCC1)NC1CCCCC1 [Example 36, 1,2,3,4-tetrahydroisoquinolin-5-yl (3S)-4-(N,3-dicyclohexyl-D-alanyl)-3-[(thiophen-2-ylmethyl)carbamoyl]piperazine-1-carboxylate]	4.1 nM
Cc1ccc(OC(=O)N2CCN(C(=O)[C@@H](CCCCN(C)C)N(C)C3CCC4(CC3)CCN(Cc3ccccc3)C4)[C@H](C(=O)NCc3cccs3)C2)c(Cl)c1C (stereo partly drawn) [Example 100, 2-chloro-3,4-dimethylphenyl (3S)-4-[N^2-(2-benzyl-2-azaspiro[4.5]dec-8-yl)-N^2,N^6,N^6-trimethyl-D-lysyl]-3-[(thiophen-2-ylmethyl)carbamoyl]piperazine-1-carboxylate]	0.5 nM
C[C@@H]1N=C(N2CCN(C(=O)[C@H](NC3CCC(C(N)=O)CC3)[C@H]3CC[C@H](N4CCCCC4)CC3)[C@H](C(=O)NCc3cccs3)C2)O[C@H]1c1ccccc1 (stereo partly drawn) [Example 119, (2S)-1-[(2R)-2-[(4-carbamoylcyclohexyl)amino]-2-(trans-4-piperidin-1-ylcyclohexyl)acetyl]-4-[(4S,5S)-4-methyl-5-phenyl-4,5-dihydro-1,3-oxazol-2-yl]-N-(thiophen-2-ylmethyl)piperazine-2-carboxamide]	1.5 nM
CS(=O)(=O)NCCCC[C@@H](NC1CCC2(CC1)CCN(Cc1ccccc1)C2)C(=O)N1CCN(C(=O)Oc2ccccc2Cl)C[C@H]1C(=O)NCc1cccs1 (stereo partly drawn) [Example 54, 2-chlorophenyl (3S)-4-[N^2-(2-benzyl-2-azaspiro[4.5]dec-8-yl)-N~6~- (methylsulfonyl)-D-lysyl]-3-[(thiophen-2-ylmethyl)carbamoyl]piperazine-1-carboxylate]	8.1 nM
Cc1ccc(OC(=O)N2CCN(C(=O)[C@@H](CCCCN3CCCCC3)NC3CCC4(CC3)CCN(Cc3ccccc3)C4)[C@H](C(=O)NCc3cccs3)C2)c(Cl)c1C (stereo partly drawn) [Example 104, 2-chloro-3,4-dimethylphenyl (3S)-4-[N-(2-benzyl-2-azaspiro[4.5]dec-8-yl)-6-piperidin-1-yl-D-norleucyl]-3-[(thiophen-2-ylmethyl)carbamoyl]piperazine-1-carboxylate]	0.2 nM
Cc1ccc(OC(=O)N2CCN(C(=O)[C@@H](CC3CCCCC3)NC3CCCCC3)[C@H](C(=O)NCc3cccs3)C2)c(Cl)c1C [Example 94, 2-chloro-3,4-dimethylphenyl (3S)-4-(N,3-dicyclohexyl-D-alanyl)-3-[(thiophen-2-ylmethyl)carbamoyl]piperazine-1-carboxylate]	7.5 nM
COc1cc(CNC(=O)[C@@H]2CN(C(=O)Oc3ccc4ccccc4c3Cl)CCN2C(=O)[C@H](N)CCCCN(C)C)ccc1CN [Example 89, 1-chloronaphthalen-2-yl (3S)-3-{[4-(aminomethyl)-3-methoxybenzyl]carbamoyl}-4-(N^6,N^6-dimethyl-D-lysyl)piperazine-1-carboxylate]	1.7 nM
CN(C)CCCC[C@@H](NC1CCC2(CC1)CCN(Cc1ccccc1)C2)C(=O)N1CCN(C(=O)CC2CCCC2)C[C@H]1C(=O)NCc1cccs1 (stereo partly drawn) [Example 93, (2S)-1-[N^2-(2-benzyl-2-azaspiro[4.5]dec-8-yl)-N^6,N^6-dimethyl-D-lysyl]-4-(cyclopentylacetyl)-N-(thiophen-2-ylmethyl)piperazine-2-carboxamide]	23.5 nM
COc1cc(CNC(=O)[C@@H]2CN(C3=N[C@@H](C)[C@H](c4ccccc4)O3)CCN2C(=O)[C@@H](CCCCN2CCCCC2)NC(C)C)ccc1CN [Example 118, (2S)-N-[4-(aminomethyl)-3-methoxybenzyl]-1-[N-(1-methylethyl)-6-piperidin-1-yl-D-norleucyl]-4-[(4S,5S)-4-methyl-5-phenyl-4,5-dihydro-1,3-oxazol-2-yl]piperazine-2-carboxamide]	8.1 nM
CN(C)CCCC[C@@H](NC1CCCCC1)C(=O)N1CCN(C(=O)Oc2ccccc2Cl)C[C@H]1C(=O)NCc1cccs1 [Example 73, 2-chlorophenyl (3S)-4-(N^2-cyclohexyl-N^6,N^6-dimethyl-D-lysyl)-3-[(thiophen-2-ylmethyl)carbamoyl]piperazine-1-carboxylate]	1.1 nM
NCc1cccc(OC(=O)N2CCN(C(=O)[C@@H](CC3CCCCC3)NC3CCCCC3)[C@H](C(=O)NCc3cccs3)C2)c1Cl [Example 55, 3-(aminomethyl)-2-chlorophenyl (3S)-4-(N,3-dicyclohexyl-D-alanyl)-3-[(thiophen-2-ylmethyl)carbamoyl]piperazine-1-carboxylate]	1.1 nM
